Reference: patent publication US9995734B2, “Human T cell line assay for evaluating the immunologic identity of glatiramer acetate preparations” (Mylan Inc., priority 2013, dated 2018)

Assays:
[1] = test system: Donor 3 GMA T-Cell Lines; assay: ATP proliferation assay (CellTiter Glo), Donor 3 GMA T-cell lines, incl. reactivity to non-canonical GA peptides; format: cell-based, human
[2] = test system: Donor 3 COP T-Cell Lines; assay: ATP proliferation assay (CellTiter Glo), Donor 3 COP T-cell lines, incl. reactivity to non-canonical GA peptides; format: cell-based, human; details: for Reactivity (proliferation), Mean: Day 54 of culture

## glatiramer acetate [GMA]
[1]; T-cell line 165-F10G, 3 μg/mL antigen, Day 50 of culturing, No Antigen Value 3752
  Proliferation (luminescent ATP assay), Mean: 35371 RLU
[1]; T-cell line 165-F10G, 3 μg/mL, Day 40
  Mean, ATP proliferation assay: 17900
[1]; T-cell line 165-F10G, 5 μg/mL antigen, autologous B-LCL
  Proliferation (luminescent ATP assay), Mean: 66355 RLU
[1]; T-cell line 165-F10G, 10 μg/mL antigen, Day 50 of culturing, No Antigen Value 3752
  Proliferation (luminescent ATP assay), Mean: 58913 RLU
[1]; T-cell line 165-F10G, 10 μg/mL antigen, autologous B-LCL
  Proliferation (luminescent ATP assay), Mean: 57329 RLU
[1]; T-cell line 165-F10G, 10 μg/mL, Day 40
  Mean, ATP proliferation assay: 30198
[1]; T-cell line 165-F10G, 30 μg/mL antigen, Day 50 of culturing, No Antigen Value 3752
  Proliferation (luminescent ATP assay), Mean: 59173 RLU
[1]; T-cell line 165-H11G, 1 μg/mL antigen, Day 50 of culturing, No Antigen Value 1485
  Proliferation (luminescent ATP assay), Mean: 9569 RLU
[1]; T-cell line 165-H11G, 1 μg/mL, Day 40
  Mean, ATP proliferation assay: 10205
[1]; T-cell line 165-H11G, 1.25 μg/mL antigen, autologous B-LCL
  Proliferation (luminescent ATP assay), Mean: 8 RLU
[1]; T-cell line 165-H11G, 2.5 μg/mL antigen, autologous B-LCL
  Proliferation (luminescent ATP assay), Mean: 33793 RLU
[1]; T-cell line 165-H11G, 3 μg/mL antigen, Day 50 of culturing, No Antigen Value 1485
  Proliferation (luminescent ATP assay), Mean: 46539 RLU
[1]; T-cell line 165-H11G, 3 μg/mL, Day 40
  Mean, ATP proliferation assay: 27515
[1]; T-cell line 165-H11G, 5 μg/mL antigen, autologous B-LCL
  Proliferation (luminescent ATP assay), Mean: 70949 RLU
[1]; T-cell line 165-H11G, 10 μg/mL antigen, Day 50 of culturing, No Antigen Value 1485
  Proliferation (luminescent ATP assay), Mean: 49104 RLU
[1]; T-cell line 165-H11G, 10 μg/mL antigen, autologous B-LCL
  Proliferation (luminescent ATP assay), Mean: 72728 RLU
[1]; T-cell line 165-H11G, 10 μg/mL, Day 40
  Mean, ATP proliferation assay: 44067
[1]; T-cell line 165-H11G, 30 μg/mL antigen, Day 50 of culturing, No Antigen Value 1485
  Proliferation (luminescent ATP assay), Mean: 32179 RLU
[1]; all 8 Donor 3 GMA cell lines tested, Day 32, 10 μg/mL (Table 19)
  responsiveness in proliferation assay: responsive
[1]; eleven of the 12 cell lines (all but F2G), Day 40, 1, 3 or 10 μg/mL (Table 21)
  responsiveness in proliferation assay: responsive
[2]; 165-D2C, 165-C7C, 165-C4C, Day 39, three concentrations (Table 24)
  response in ATP proliferation assay: responded comparably
[2]; T-cell line 165-B6C, 1 μg/mL antigen, No Antigen 2358
  Reactivity (proliferation), Mean: 3939 RLU
[2]; T-cell line 165-B6C, 1 μg/mL, Day 46, after 3 days
  Mean, ATP proliferation assay: 9925 RLU
[2]; T-cell line 165-B6C, 3 μg/mL antigen, No Antigen 2358
  Reactivity (proliferation), Mean: 19344 RLU
[2]; T-cell line 165-B6C, 3 μg/mL, Day 46, after 3 days
  Mean, ATP proliferation assay: 38105 RLU
[2]; T-cell line 165-B6C, 10 μg/mL antigen, No Antigen 2358
  Reactivity (proliferation), Mean: 29012 RLU
[2]; T-cell line 165-B6C, 10 μg/mL, Day 46, after 3 days
  Mean, ATP proliferation assay: 25839 RLU
[2]; T-cell line 165-B6C, 100 μg/mL antigen, No Antigen 2358
  Reactivity (proliferation), Mean: 9856 RLU
[2]; T-cell line 165-B6C, Day 32, 10 μg/mL
  Mean, ATP proliferation assay: 1058 RLU
[2]; T-cell line 165-B10C, 1 μg/mL antigen, No Antigen 2234
  Reactivity (proliferation), Mean: 1942 RLU
[2]; T-cell line 165-B10C, 1 μg/mL, Day 46, after 3 days
  Mean, ATP proliferation assay: 5592 RLU
[2]; T-cell line 165-B10C, 3 μg/mL antigen, No Antigen 2234
  Reactivity (proliferation), Mean: 2658 RLU
[2]; T-cell line 165-B10C, 3 μg/mL, Day 46, after 3 days
  Mean, ATP proliferation assay: 13012 RLU
[2]; T-cell line 165-B10C, 10 μg/mL antigen, No Antigen 2234
  Reactivity (proliferation), Mean: 5854 RLU
[2]; T-cell line 165-B10C, 10 μg/mL, Day 46, after 3 days
  Mean, ATP proliferation assay: 19866 RLU
[2]; T-cell line 165-B10C, 100 μg/mL antigen, No Antigen 2234
  Reactivity (proliferation), Mean: 6380 RLU
[2]; T-cell line 165-C4C, 1 μg/mL antigen, Day 66 of culture, 0 μg/mL 1881
  Proliferation (luminescent ATP assay), Mean: 2668
[2]; T-cell line 165-C4C, 1 μg/mL, Day 39
  Mean, ATP proliferation assay: 9367
[2]; T-cell line 165-C4C, 3 μg/mL antigen, Day 66 of culture, 0 μg/mL 1881
  Proliferation (luminescent ATP assay), Mean: 16108
[2]; T-cell line 165-C4C, 3 μg/mL, Day 39
  Mean, ATP proliferation assay: 26279
[2]; T-cell line 165-C4C, 10 μg/mL antigen, Day 66 of culture, 0 μg/mL 1881
  Proliferation (luminescent ATP assay), Mean: 88509
[2]; T-cell line 165-C4C, 10 μg/mL, Day 39
  Mean, ATP proliferation assay: 31014
[2]; T-cell line 165-C7C, 1 μg/mL, Day 39
  Mean, ATP proliferation assay: 3307
[2]; T-cell line 165-C7C, 1.25 μg/mL antigen, autologous B-LCL
  Proliferation (luminescent ATP assay), Mean: 610 RLU
[2]; T-cell line 165-C7C, 2.5 μg/mL antigen, autologous B-LCL
  Proliferation (luminescent ATP assay), Mean: 2699 RLU
[2]; T-cell line 165-C7C, 3 μg/mL, Day 39
  Mean, ATP proliferation assay: 12832
[2]; T-cell line 165-C7C, 5 μg/mL antigen, autologous B-LCL
  Proliferation (luminescent ATP assay), Mean: 22588 RLU
[2]; T-cell line 165-C7C, 10 μg/mL antigen, autologous B-LCL
  Proliferation (luminescent ATP assay), Mean: 24029 RLU
[2]; T-cell line 165-C7C, 10 μg/mL, Day 39
  Mean, ATP proliferation assay: 42739
[2]; T-cell line 165-D2C, 1 μg/mL, Day 39
  Mean, ATP proliferation assay: 3881
